Values quoted from earlier work as cited in patent US7709469B2, “P2X7 receptor antagonists and methods of use” (Abbott Laboratories, priority 2005, dated 2010).

How the values were obtained:
P2X7 [1] = biological target: T1, P2X7 (Rattus norvegicus, UniProt Q64663); set-up: Rats with SCI were administered P2X7 receptor irreversible antagonists oATP and PPADS; host or cells: living rats (endogenous receptor); conditions: rats with SCI
T1 sequence (Q64663 1-595): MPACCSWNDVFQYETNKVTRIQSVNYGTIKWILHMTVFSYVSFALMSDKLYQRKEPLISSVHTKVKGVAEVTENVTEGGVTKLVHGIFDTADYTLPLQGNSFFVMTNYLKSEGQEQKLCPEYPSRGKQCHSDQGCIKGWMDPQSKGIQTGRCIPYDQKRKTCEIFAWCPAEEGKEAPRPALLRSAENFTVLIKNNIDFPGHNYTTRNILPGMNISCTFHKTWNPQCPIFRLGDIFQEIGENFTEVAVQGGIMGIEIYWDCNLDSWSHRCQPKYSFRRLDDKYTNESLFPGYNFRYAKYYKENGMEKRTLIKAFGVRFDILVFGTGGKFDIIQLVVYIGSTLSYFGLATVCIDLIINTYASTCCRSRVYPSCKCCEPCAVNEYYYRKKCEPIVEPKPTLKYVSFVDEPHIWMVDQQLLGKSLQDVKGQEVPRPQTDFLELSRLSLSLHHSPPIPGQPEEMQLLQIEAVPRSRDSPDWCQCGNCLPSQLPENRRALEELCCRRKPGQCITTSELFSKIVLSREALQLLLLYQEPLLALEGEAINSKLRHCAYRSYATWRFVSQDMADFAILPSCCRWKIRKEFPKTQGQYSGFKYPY

P2X7 [2] = biological target: T1, P2X7; set-up: host or cells: living rats (endogenous receptor); conditions: inflamed rats

| SMILES | histological injury and recovery of motor function after SCI (P2X7 [1]) | antinociceptive properties (P2X7 [2]) |
| --- | --- | --- |
| Cc1nc(N=Nc2ccc(S(=O)(=O)O)cc2S(=O)(=O)O)c(COP(=O)(O)O)c(C=O)c1O [PPADS] | decrease of histological injury and improved recovery of motor function | – |
| Nc1ncnc2c1ncn2[C@@H](C=O)O[C@@H](C=O)COP(=O)(O)OP(=O)(O)OP(=O)(O)O [oATP, Oxidized ATP] | decrease of histological injury and improved recovery of motor function | possess peripherally mediated antinociceptive properties |
